The values that follow come from patent US4828979A, “Nucleotide analogs for nucleic acid labeling and detection” (Life Technologies, Inc., priority 1984, dated 1989).

Read-outs that look alike come from different tables or passages of the source.

The target in test [1] is T1, DNA polymerase I (Escherichia coli, UniProt P00582).
T1 construct: purchased BRL (Nick Translation System)
The test can be described thus: Incorporation of dATP/dCTP and analogs into plasmid DNA by nick translation (3H-dGTP tracer). It counts as biochemical, E. coli. The conditions noted are these: 1.5 h, tracer 3H-dGTP incorporation relative to reaction mixture containing dNTP's and no derivatives, duplicate figures = two determinations. The protocol: Incorporation into Plasmid DNA of Biotinylated dATP Derivatives
The time course and levels of incorporation were studied as a function of linker size.
(§1) Using the BRL Nick Translation System, dATP and various derivatives were incorporated into plasmid DNA.
(§2) At each time point of interest, 2 μl from the reaction mixture was withdrawn, spotted on glass fiber filters (GF/C), washed in 10% trichloroacetic acid (TCA) once and 5% TCA twice, and dried after washing in alcohol. The filters were counted in a liquid scintillation counter.
The relative levels of incorporation of the modified nucleotides at the 90 minute time point are seen in Table 1 below, in which the data are reported as percent incorporation of the tracer radio-nucleotide (^3 H-dGTP) relative to incorporation resulting from a reaction mixture containing dNTP's and no derivatives. Duplicate figures indicate two determinations. Results for dCTP and analogs appear also.

Test [2] relates to streptavidin-biotin alkaline phosphatase system. Briefly: Sensitivity of detection of probes biotinylated with various linker lengths, spotted on nitrocellulose. The method, then: (§3) The reaction volume was 1 ml. At 10 minutes, 30 minutes and 90 minutes, 200 μl of the reaction mixture was removed and the reaction quenched with 30 mM EDTA. The DNA from each sample was purified on a Sephade® G-50 column. […] In Table 2, "+" or "-" indicates the presence or absence, respectively of visible spots; it can be seen that a high degree of sensitivity exists even with a relatively low level of biotin incorporation.
Probes biotinylated with various linker lengths were then compared for sensitivity of detection. Plasmid DNA was nick translated according to the described protocol with Biotin-n-dATP, for n=7, 14, 3 or 10. The biotinylated DNA's were then purified from unincorporated nucleotides by gel filtration on Sephadex® G-50 in 1×SSC (0.15 M NaCl, 0.015 M sodium citrate) containing 0.1% SDS. The biotinylated DNA was diluted into 6×SSC containing 0.2 μg/μl sheared herring sperm DNA and spotted onto nitrocellulose paper in the range of 50 pg/5 μl to 1 pg/5 μl. After 30 minutes' incubation in the NBT/BCIP dye mixture of the BRL DNA Detection System, 2 pg spots of Bio-7, 14 or 10-dATP labeled probe and a 5 pg spot of Bio-3-dATP labeled probe were visible. After 1.5 hours, the 1 pg spot of each biotin-dATP-labeled probe was visible.

The next test concerns human β-globin gene. The test can be described thus: Detection of single-copy gene sequence in Southern blot of Eco RI digested human DNA. The following applies: NBT/BCIP dye system; probe 100 ng/ml, hybridization 16-24 hours. The protocol:
A plasmid containing the 1.1 Kb Mst II fragment of the human β-globin gene in the Eco RI site of pBR322 (obtained from Dr. Y. W. Kan, UCSF) was nick translated with either Biotin-n-dATP in the presence of dTTP, dCTP, and dGTP, or Biotin-n-dCTP in the presence of dATP, dTTP, and dGTP. All nucleotides were at 20 μM and the reaction was allowed to proceed for 90 minutes. Conditions for nick translation of the DNA probe and purification of the biotin-labeled material are given in the manual of the BRL DNA Detection System.
The biotinylated probe was hybridizedto a Southern blot of Eco RI digested human DNA or to an Eco RI digest of the plasmid DNA. Probe concentration was 100 ng/ml and hybridization was allowed to proceed for 16-24 hours under conditions described by Leary et al. (Leary, J. J., Brigati, D. J. and Ward, D. C. (1983) Proc. Natl. Acad. Sci. USA 80 4045-4049). The filter was developed with the BRL Detection System as described in the system's instruction manual. The single copy β-globin gene Fragment at 5.2 Kb was observed within 3 hours of staining with the NBT/BCIP dye system for DNA probes labeled with Biotin-n-dATP where n=3, 7, 10 or 14 and Biotin-n-dCTP where n=7 or 10.

The target of test [3] is T1, DNA polymerase I. The test can be described thus: Incorporation using radiolabelled biotin-nucleotide (32P-dCTP and 3H-biotin). The following applies: 20 μM [3H-biotin]-7-dATP; FIG. 6. The format is biochemical, E. coli. The protocol:
as §1, §2
Using the same protocol, incorporation was then performed using a radiolabelled biotin-nucleotide. Thus, the level of biotin incorporation was directly determined. 200 μl of the reaction mixture contained 10 μCi of α-^32 PdCTP and either 20 μM dATP or 20 μM [^3 H-biotin]-7-dATP. […] The lower curves show the time courses of incorporation of ^32 P-dCMP and the tritium labelled and biotinylated derivative of dAMP.

Test [4] deals with T1, DNA polymerase I. Briefly: Incorporation of various levels of Bio-7-dATP into plasmid DNA by nick translation. It counts as biochemical, E. coli. The protocol:
as §1
To examine the detection sensitivity of probes made from the biotinylated nucleotides of the present invention, incorporation of various levels of Bio-7-dATP into plasmid DNA was carried out by nick translation as previously disclosed.
as §3

[5] abbreviates: 90 min, 15° C., read-out: % Incorporation (90 min.).
Setting [6] is: after 30 minutes' incubation in NBT/BCIP dye mixture.

T1 sequence (P00582 whole entry): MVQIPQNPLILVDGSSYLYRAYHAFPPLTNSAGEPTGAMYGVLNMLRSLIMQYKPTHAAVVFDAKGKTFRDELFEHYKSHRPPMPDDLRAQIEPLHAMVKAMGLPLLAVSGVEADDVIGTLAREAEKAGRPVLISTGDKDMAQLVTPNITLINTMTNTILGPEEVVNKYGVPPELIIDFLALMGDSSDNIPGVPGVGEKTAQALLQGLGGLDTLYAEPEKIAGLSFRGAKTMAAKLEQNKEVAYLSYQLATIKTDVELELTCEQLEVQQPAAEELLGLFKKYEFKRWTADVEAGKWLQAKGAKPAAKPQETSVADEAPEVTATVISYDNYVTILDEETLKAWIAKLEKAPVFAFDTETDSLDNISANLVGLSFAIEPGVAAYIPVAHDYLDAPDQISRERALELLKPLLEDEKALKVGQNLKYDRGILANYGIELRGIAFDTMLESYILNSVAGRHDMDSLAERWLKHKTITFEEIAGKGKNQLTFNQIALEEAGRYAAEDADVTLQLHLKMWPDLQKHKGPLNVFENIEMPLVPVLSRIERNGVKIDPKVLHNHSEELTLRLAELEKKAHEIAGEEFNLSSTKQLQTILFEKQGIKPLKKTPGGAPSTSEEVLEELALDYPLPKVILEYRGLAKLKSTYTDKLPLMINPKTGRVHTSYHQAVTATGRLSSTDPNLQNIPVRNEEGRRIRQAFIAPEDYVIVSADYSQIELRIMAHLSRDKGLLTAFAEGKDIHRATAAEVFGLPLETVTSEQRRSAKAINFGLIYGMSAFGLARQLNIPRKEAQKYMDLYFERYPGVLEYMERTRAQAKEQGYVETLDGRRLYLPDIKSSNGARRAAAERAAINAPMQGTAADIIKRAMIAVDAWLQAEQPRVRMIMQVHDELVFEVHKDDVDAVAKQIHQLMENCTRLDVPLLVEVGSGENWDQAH

On to `O=C(CCCC[C@@H]1SC[C@@H]2NC(=O)N[C@@H]21)NCCCCCC(=O)NCCNc1ncnc2c1ncn2[C@H]1C[C@H](O)[C@@H](COP(=O)(O)OP(=O)(O)OP(=O)(O)O)O1` [Biotin-10-dATP], for which, on DNA polymerase I [1] (setting [5]), the activity at 20 µM is 15%. In test [2] (setting [6]), the “spot of labeled probe visible (sensitivity)” value (“spot of labeled probe visible” below) is 2 pg. Moreover, the “time of staining within which single copy β-globin gene fragment at 5.2 Kb was observed” value (from here on “time … at 5.2 Kb was observed”) in the test with human β-globin gene was at most 3 h. Taken in the same sequence, the figures for `O=C(CCCC[C@@H]1SC[C@@H]2NC(=O)N[C@@H]21)NCCNc1ncnc2c1ncn2[C@H]1C[C@H](O)[C@@H](COP(=O)(O)OP(=O)(O)OP(=O)(O)O)O1` [Biotin-3-dATP] were 29%, 5 pg and at most 3 h. `O=C(CCCC[C@@H]1SC[C@@H]2NC(=O)N[C@@H]21)NCCCCCCNc1ccn([C@H]2C[C@H](O)[C@@H](COP(=O)(O)OP(=O)(O)OP(=O)(O)O)O2)c(=O)n1` [Biotin-7-dCTP]: on DNA polymerase I [1] (setting [5]), the activity at 20 µM was 44%. Besides, the “time … at 5.2 Kb was observed” value with human β-globin gene was at most 3 h. For the compound `O=C(CCCCCNC(=O)CCCC[C@@H]1SC[C@@H]2NC(=O)N[C@@H]21)NCCCCCCNC(=O)CNc1ncnc2c1ncn2[C@H]1C[C@H](O)[C@@H](COP(=O)(O)OP(=O)(O)OP(=O)(O)O)O1` [Biotin-17-dATP], the activity at 20 µM at DNA polymerase I [1] (setting [5]) was 6.7%. On the same count and under the same terms, the figure for `Nc1ncnc2c1ncn2[C@H]1C[C@H](O)[C@@H](COP(=O)(O)OP(=O)(O)OP(=O)(O)O)O1` [dATP, reference compound] is 100%. The same measure, in the same setting: next, `O=C(CCCC[C@@H]1SC[C@@H]2NC(=O)N[C@@H]21)NCCNc1ccn([C@H]2C[C@H](O)[C@@H](COP(=O)(O)OP(=O)(O)OP(=O)(O)O)O2)c(=O)n1` [Biotin-3-dCTP]: 12%. `O=C(CCCCCNC(=O)CCCC[C@@H]1SC[C@@H]2NC(=O)N[C@@H]21)NCCCCCCNc1ncnc2c1ncn2[C@H]1C[C@H](O)[C@@H](COP(=O)(O)OP(=O)(O)OP(=O)(O)O)O1` [Biotin-14-dATP]: the activity at 20 µM at DNA polymerase I [1] (setting [5]) amounted to 33%. Further, the “spot of labeled probe visible” value in test [2] (setting [6]) worked out at 2 pg. Also, the “time … at 5.2 Kb was observed” value in the test with human β-globin gene is at most 3 h. With `O=C(CCCC[C@@H]1SC[C@@H]2NC(=O)N[C@@H]21)NCCCCCC(=O)NCCNc1ccn([C@H]2C[C@H](O)[C@@H](COP(=O)(O)OP(=O)(O)OP(=O)(O)O)O2)c(=O)n1` [Biotin-10-dCTP], on DNA polymerase I [1] (setting [5]), the activity at 20 µM came to 22%. In addition, the “spot of labeled probe visible” value in test [2] (setting [6]) amounted to 2 pg; in test [2] (after 1.5 hours in NBT/BCIP dye mixture), 1 pg. In the test with human β-globin gene, the “time … at 5.2 Kb was observed” value was at most 3 h. With `O=C(CCCC[C@@H]1SC[C@@H]2NC(=O)N[C@@H]21)NCCCCCCNc1ncnc2c1ncn2[C@H]1C[C@H](O)[C@@H](COP(=O)(O)OP(=O)(O)OP(=O)(O)O)O1` [[^3 H-biotin]-7-dATP], the “correspondence of time courses of incorporation of 32P-dCMP and the tritium labelled and biotinylated derivative of dAMP” value on DNA polymerase I [3] is recorded as “close correspondence”. On to `NCCCCCCNc1ncnc2c1ncn2[C@H]1C[C@H](O)[C@@H](COP(=O)(O)OP(=O)(O)OP(=O)(O)O)O1` [N^6 --aminohexyldATP, N^6-(6-aminohexyl)dATP], for which the activity at 20 µM at DNA polymerase I [1] (read-out: % Incorporation (90 min.), 90 min, 15° C.) is 67%. `NCCCCCCNc1ccn([C@H]2C[C@H](O)[C@@H](COP(=O)(O)OP(=O)(O)OP(=O)(O)O)O2)c(=O)n1` [N^4 --(6-aminohexyl)dCTP, N^4-(6-aminohexyl)dCTP]: the activity at 20 µM on DNA polymerase I [1] (setting [5]) is 74%. Still for that read-out and setting: next, `Nc1ccn([C@H]2C[C@H](O)[C@@H](COP(=O)(O)OP(=O)(O)OP(=O)(O)O)O2)c(=O)n1` [dCTP, reference compound]: 100%.

On to “N^6 -(6-hexylamidobiotin-2'-deoxyadenosine 5'-monophosphate [Bio-7-dAMP]”, for which the “Bio-7-dAMP per Kb” value at DNA polymerase I [4] (10 min nick translation) is listed as 7 per Kb; at DNA polymerase I [4] (30 min nick translation), 35 per Kb; on DNA polymerase I [4] (90 min nick translation), 98 per Kb.

With `O=C(CCCC[C@@H]1SC[C@@H]2NC(=O)N[C@@H]21)NCCCCCCNc1ncnc2c1ncn2[C@H]1C[C@H](O)[C@@H](COP(=O)(O)OP(=O)(O)OP(=O)(O)O)O1` [Biotin-7-dATP, N^6-(6-hexylamidobiotin)-2'-deoxyadenosine 5'-triphosphate], at DNA polymerase I [1] (setting [5]), the activity at 20 µM came to 53%. The “spot of labeled probe visible” value in test [2] (setting [6]) amounted to 2 pg. In addition, the “time … at 5.2 Kb was observed” value in the test with human β-globin gene is at most 3 h. Consider `O=C(CCCCCNC(=O)CCCC[C@@H]1SC[C@@H]2NC(=O)N[C@@H]21)NCCCCCCNc1ccn([C@H]2C[C@H](O)[C@@H](COP(=O)(O)OP(=O)(O)OP(=O)(O)O)O2)c(=O)n1` [Biotin-14-dCTP], for which, at DNA polymerase I [1] (setting [5]), the activity at 20 µM was 42%. Still for that read-out and setting: the figure for `O=C(CCCC[C@@H]1SC[C@@H]2NC(=O)N[C@@H]21)NCCCCCCNC(=O)CNc1ncnc2c1ncn2[C@H]1C[C@H](O)[C@@H](COP(=O)(O)OP(=O)(O)OP(=O)(O)O)O1` [Biotin-10'-dATP] is 6.9%.
